Calls of active or inactive are those of the source. The calls are words filed in the database; no cut-off is given here.
Assays:
[1] = target: T1, 72 kDa type IV collagenase (Homo sapiens, UniProt P08253); experiment: Inhibition of MMP2
Target sequence in this assay (P08253 whole entry): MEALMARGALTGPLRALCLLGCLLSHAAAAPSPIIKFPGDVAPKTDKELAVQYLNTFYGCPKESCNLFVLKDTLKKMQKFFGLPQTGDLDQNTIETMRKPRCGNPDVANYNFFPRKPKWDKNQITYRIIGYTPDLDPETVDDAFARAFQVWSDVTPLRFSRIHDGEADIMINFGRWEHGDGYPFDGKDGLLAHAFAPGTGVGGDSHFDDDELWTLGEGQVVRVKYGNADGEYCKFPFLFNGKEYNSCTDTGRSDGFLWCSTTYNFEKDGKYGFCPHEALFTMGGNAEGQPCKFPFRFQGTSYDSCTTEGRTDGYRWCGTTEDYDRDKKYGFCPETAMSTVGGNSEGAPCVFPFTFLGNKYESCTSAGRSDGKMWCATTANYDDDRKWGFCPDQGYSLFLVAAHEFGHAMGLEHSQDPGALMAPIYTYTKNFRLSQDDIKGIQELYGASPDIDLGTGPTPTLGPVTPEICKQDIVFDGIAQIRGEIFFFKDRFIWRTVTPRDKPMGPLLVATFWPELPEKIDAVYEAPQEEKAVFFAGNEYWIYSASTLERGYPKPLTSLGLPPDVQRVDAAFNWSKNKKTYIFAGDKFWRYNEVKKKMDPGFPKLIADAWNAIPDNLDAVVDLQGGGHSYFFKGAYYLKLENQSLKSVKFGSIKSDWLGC

[2] = target: T2, Matrix metalloproteinase-9 (Homo sapiens, UniProt P14780); experiment: Inhibition of MMP9
[3] = target: T3, Stromelysin-1 (Homo sapiens, UniProt P08254); experiment: Inhibition of MMP3
Target sequence in this assay (P08254 whole entry): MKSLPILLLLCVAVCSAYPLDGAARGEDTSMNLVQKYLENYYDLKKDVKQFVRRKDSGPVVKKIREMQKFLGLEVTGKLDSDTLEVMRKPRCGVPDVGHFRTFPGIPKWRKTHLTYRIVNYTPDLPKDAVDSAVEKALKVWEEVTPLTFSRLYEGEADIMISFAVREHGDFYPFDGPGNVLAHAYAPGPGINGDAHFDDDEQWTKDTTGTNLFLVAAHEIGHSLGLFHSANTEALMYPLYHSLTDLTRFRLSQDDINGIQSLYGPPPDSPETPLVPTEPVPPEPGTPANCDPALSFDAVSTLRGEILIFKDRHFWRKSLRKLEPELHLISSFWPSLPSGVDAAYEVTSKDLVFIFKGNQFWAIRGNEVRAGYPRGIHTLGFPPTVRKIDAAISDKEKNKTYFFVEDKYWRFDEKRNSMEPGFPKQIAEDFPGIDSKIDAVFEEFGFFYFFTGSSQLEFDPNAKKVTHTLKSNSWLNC

[4] = target: T4, Interstitial collagenase (Homo sapiens, UniProt P03956); experiment: Inhibition of MMP1
T4 sequence (P03956 whole entry): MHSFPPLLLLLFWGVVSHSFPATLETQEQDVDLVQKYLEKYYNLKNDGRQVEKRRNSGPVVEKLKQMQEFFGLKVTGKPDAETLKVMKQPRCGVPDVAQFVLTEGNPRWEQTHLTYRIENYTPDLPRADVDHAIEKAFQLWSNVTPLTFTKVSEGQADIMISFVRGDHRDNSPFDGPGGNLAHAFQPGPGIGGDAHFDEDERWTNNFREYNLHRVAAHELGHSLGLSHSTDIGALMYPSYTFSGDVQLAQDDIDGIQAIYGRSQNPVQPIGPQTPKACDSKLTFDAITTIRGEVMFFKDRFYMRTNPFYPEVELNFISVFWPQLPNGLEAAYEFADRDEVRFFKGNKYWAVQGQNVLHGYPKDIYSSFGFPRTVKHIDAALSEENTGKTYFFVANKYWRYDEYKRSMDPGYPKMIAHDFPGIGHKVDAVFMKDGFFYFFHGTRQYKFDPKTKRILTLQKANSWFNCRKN

[5] = target: Collagenase 3 (Homo sapiens, UniProt P45452); experiment: Inhibition of MMP13
[6] = target: T3, Stromelysin-1; experiment: Inhibition of MMP3 at 100 uM
Target sequence in this assay (P08254 100-477 limits assumed): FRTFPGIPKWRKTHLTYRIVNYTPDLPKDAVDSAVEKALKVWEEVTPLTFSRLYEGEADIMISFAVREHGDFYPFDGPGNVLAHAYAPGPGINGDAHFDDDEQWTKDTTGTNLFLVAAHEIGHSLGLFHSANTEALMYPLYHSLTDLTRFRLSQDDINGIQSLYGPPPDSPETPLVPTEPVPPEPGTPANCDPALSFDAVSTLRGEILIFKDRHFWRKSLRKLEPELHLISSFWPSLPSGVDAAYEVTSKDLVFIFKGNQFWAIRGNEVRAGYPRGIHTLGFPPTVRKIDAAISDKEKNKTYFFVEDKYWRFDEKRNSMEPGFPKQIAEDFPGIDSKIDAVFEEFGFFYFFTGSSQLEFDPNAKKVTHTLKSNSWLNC

[7] = target: T2, Matrix metalloproteinase-9; experiment: Inhibition of MMP9 at 100 uM
[8] = target: T1, 72 kDa type IV collagenase; settings: 100 uM
Target sequence in this assay (P08253 110-660 limits assumed): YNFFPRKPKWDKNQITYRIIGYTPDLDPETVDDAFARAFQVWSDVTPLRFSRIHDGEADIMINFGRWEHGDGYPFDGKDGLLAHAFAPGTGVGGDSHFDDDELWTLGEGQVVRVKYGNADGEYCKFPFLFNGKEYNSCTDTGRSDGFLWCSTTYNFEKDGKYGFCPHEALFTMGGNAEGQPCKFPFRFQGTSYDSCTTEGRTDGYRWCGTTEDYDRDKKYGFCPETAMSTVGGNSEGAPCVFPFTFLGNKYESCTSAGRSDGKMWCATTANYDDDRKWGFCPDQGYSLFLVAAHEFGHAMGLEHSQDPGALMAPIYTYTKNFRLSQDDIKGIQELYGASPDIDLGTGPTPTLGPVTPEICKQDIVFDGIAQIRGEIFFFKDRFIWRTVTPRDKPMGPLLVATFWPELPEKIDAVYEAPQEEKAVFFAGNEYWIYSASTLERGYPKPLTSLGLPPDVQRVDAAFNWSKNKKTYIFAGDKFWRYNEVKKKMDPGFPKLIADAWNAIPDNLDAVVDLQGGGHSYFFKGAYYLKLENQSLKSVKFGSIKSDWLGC
Description: Inhibition of MMP2 at 100 uM

[9] = Drug level in rat at 2 mg/kg, iv; type: ADME, organism-based; parameters: dose 2 mg/kg, route intravenous; settings: in vivo
[10] = Apparent elimination half life in rat at 2 mg/kg, iv; type: ADME, organism-based; parameters: dose 2 mg/kg, route intravenous; settings: in vivo
[11] = tested on: Rattus norvegicus; experiment: AUC in rat at 2 mg/kg, iv; type: ADME, organism-based, Plasma; parameters: dose 2 mg/kg, route intravenous; settings: in vivo
[12] = tested on: Mus musculus; experiment: Reduction of focal ischemia-induced brain edema in C57 Black/6 mouse at 6 mg/kg, iv after 2 hrs by wet/dry method; type: functional, organism-based; parameters: dose 6 mg/kg
[13] = Volume of distribution at steady state in rat at 2 mg/kg, iv; type: ADME, organism-based; parameters: dose 2 mg/kg, route intravenous; settings: in vivo, read-out: Vdss
[14] = Plasma concentration in mouse at 10 mg/kg, po after 1 hr

T2 sequence (P14780 whole entry): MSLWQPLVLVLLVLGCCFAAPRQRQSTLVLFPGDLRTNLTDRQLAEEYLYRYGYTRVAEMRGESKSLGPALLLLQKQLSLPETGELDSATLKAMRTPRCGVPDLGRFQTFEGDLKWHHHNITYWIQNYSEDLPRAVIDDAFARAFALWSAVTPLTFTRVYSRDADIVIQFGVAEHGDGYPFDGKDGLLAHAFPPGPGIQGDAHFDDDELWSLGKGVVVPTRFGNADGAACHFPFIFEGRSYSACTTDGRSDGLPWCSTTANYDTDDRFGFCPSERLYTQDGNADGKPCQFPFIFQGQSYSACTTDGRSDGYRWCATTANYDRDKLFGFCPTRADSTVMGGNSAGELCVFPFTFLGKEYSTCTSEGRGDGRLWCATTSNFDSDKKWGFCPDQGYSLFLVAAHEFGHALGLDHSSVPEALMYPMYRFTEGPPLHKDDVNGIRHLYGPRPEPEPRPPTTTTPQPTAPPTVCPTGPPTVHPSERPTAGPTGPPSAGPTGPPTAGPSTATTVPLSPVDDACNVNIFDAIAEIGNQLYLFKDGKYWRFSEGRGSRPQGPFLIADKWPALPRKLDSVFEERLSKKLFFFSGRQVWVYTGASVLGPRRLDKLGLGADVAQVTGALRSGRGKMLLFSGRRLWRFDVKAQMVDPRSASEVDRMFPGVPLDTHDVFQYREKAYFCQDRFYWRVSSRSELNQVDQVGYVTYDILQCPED

SMILES | IC50 [1] | IC50 [2] | IC50 [3] | IC50 [4] | IC50 [5] | further results
CN(c1cccn(O)c1=O)S(=O)(=O)c1ccc(Oc2ccc(OC(F)(F)F)cc2)cc1 |  | 1.8 nM |  |  |  | 
COc1ccc(Oc2ccc(S(=O)(=O)N(C)c3cccn(O)c3=O)cc2)cc1 |  |  | 79.1 nM | > 1000 nM | 6.8 nM | 
O=c1c(N(CCN2CCOCC2)S(=O)(=O)c2ccc(Oc3ccc(Cl)cc3)cc2)cccn1O |  |  | 62.9 nM | > 1000 nM | 4 nM | 
Cc1cc(=O)c(O)c(C(=O)NCc2ccc(-c3ccccc3)cc2)o1 |  |  |  |  |  | inhibition [6]: 34%; inhibition [7]: 34%; inhibition [8]: 34%
CN(c1cccn(O)c1=O)S(=O)(=O)c1ccc(Oc2ccc(Cl)cc2)cc1 | 5 nM | 2.4 nM | 56.5 nM | > 1000 nM | 2.5 nM | C0 [9]: 8.4 µM; half-life [10]: 47 h; AUC [11]: 179 µg·h/mL; Activity [12]: Active; Vd [13]: 1.75 L/kg; concentration at 1 h [14]: 34 µM

The next lines start with results.

IC50 [1] | IC50 [2] | SMILES | IC50 [3] | IC50 [4] | IC50 [5] | further results
6.1 nM | 4.4 nM | Cc1ccc(Oc2ccc(S(=O)(=O)N(C)c3cccn(O)c3=O)cc2)cc1 |  |  |  | 
41 nM | 57.5 nM | CC(C)N(c1cccn(O)c1=O)S(=O)(=O)c1ccc(Oc2ccccc2)cc1 |  |  |  | 
8.3 nM | 5 nM | CN(c1cccn(O)c1=O)S(=O)(=O)c1ccc(Oc2ccccc2)cc1 |  |  |  | 
6.5 nM | 3.6 nM | CCN(c1cccn(O)c1=O)S(=O)(=O)c1ccc(Oc2ccccc2)cc1 |  |  |  | 

From ChEMBL document CHEMBL1143235, “1-Hydroxy-2-pyridinone-based MMP inhibitors: synthesis and biological evaluation for the treatment of ischemic stroke” (Bioorg Med Chem Lett, 2008)
